From paper PMC8840081, “Phenylalanine-Based AMPA Receptor Antagonist as the Anticonvulsant Agent with Neuroprotective Activity—In Vitro and In Vivo Studies” (Molecules, 2022)

Legend:
[1] = system: IMR-32 neuroblastoma cells; assay: neuroprotection against 6-OHDA-induced LDH release; type: cell-based, human; settings: IMR-32, compound 50 µM, 1 h pretreatment, 200 µM 6-OHDA, 24 h
Description: (§1) All cell culture protocols and assay conditions were applied as we reported previously. SH-SY5Y (ATCC® CRL-2266™) cell line was purchased from ATCC (Manassas, VA, USA). IMR-32 (ATCC® CCL-127™) cell line was kindly provided by the Department of Oncogenomics, Academisch Medisch Centrum, Amsterdam, Holland. Before each test SH-SY5Y or IMR-32 cells were seeded in 96-well plates with transparent bottom at a concentration of 2.5 × 10^4 cells/well in 100 μL of respective cell culture medium and cultured for 24 h to reach 70% confluence. • Cell Viability
(§2) CytoTox-ONE™ Homogeneous Membrane Integrity Assay, which based on the LDH release, was purchased from Promega (Madison, WI, USA). SH-SY5Y or IMR-32 cells were seeded in 96-well white plates with transparent bottom. For neuroprotective studies, the cells were preincubated first for 1 h with compound 1, 8 or reference antioxidants AA, TX (all at the concentration of 50 μM) and next the neurotoxin 6-OHDA (Sigma-Aldrich, Inc., St. Louis, MO, USA) was added at final concentration of 50 μM (SH-SY5Y assay) or 200 µM (IMR-32 assay). After 24 h of incubation, the CytoTox-ONE™ was added to each well and the cells were incubated next for 10 min at room temperature. The fluorescence was measured using a microplate reader EnSpire (PerkinElmer, Waltham, MA, USA) with an excitation wavelength of 560 nm and an emission wavelength of 590 nm. All measurements were performed in triplicate and results are shown as mean ± SD. The similar studies were also performed with SH-SY5Y cells injured by 100 μM of 6-OHDA (Figure S1, Supporting Materials). • ROS Assay

[2] = system: SH-SY5Y neuroblastoma cells; assay: neuroprotection against 6-OHDA-induced LDH release; type: cell-based, human; settings: compound 50 µM
Description: as §1, §2

[3] = system: cold hyperalgesia in oxaliplatin-treated mice; assay: oxaliplatin-induced neuropathic pain model, cold plate test; type: in vivo; settings: 10 and 30 mg/kg i.p., early and late phase
Description: (§3) Behavioral experiments were carried out in male Albino Swiss (CD-1) mice weighing 18–22 g. The mice were kept in cages, in groups of 10 animals. They had free access to food and water before experiments, and were maintained at room temperature 22–24 °C, under 12:12 (light/dark) cycle. For the assays the animals were selected randomly. After the experiments the animals were euthanized by cervical dislocation. Experimental procedures for in vivo tests were approved by the Local Ethics Committee of the Jagiellonian University in Krakow (Approval No. 33/2018; release date: 1.02.2018) and the treatment of animals was performed in full accordance with ethical standards laid down in respective Polish and EU regulations (Directive 2010/63/EU).
(§4) Oxaliplatin was purchased from Activate Scientific GmbH (Prien, Germany). PTZ and STZ were provided by Merck KGaA (Darmstadt, Germany). For the in vivo tests, the compound 1 was suspended in 1% Tween 80 solution (Polskie Odczynniki Chemiczne, Gliwice, Poland), then being administered intraperitoneally 1 h before tests. For the evaluation of anticonvulsant properties of the test compound, a fixed dose of 100 mg/kg, was used. Since many AEDs at lower doses are used as analgesic drugs, for pain tests the doses 10 and 30 mg/kg were selected. […]
The effect of 1 on cold pain threshold was assessed using the cold plate test. […]

[4] = system: tactile allodynia in oxaliplatin-treated mice; assay: oxaliplatin-induced neuropathic pain model, von Frey test; type: in vivo; settings: 10 and 30 mg/kg i.p., early and late phase
Description: as §3, §4

native AMPA receptors = settings: cited from earlier work
Human MAO-B = biological target: T1, Human MAO-B (Homo sapiens, UniProt P27338); assay: MAO-B inhibition, Amplex Red Monoamine Oxidase kit; type: biochemical
T1 construct: purchased Merck KGaA (Darmstadt, Germany)
T1 sequence (P27338 1-520): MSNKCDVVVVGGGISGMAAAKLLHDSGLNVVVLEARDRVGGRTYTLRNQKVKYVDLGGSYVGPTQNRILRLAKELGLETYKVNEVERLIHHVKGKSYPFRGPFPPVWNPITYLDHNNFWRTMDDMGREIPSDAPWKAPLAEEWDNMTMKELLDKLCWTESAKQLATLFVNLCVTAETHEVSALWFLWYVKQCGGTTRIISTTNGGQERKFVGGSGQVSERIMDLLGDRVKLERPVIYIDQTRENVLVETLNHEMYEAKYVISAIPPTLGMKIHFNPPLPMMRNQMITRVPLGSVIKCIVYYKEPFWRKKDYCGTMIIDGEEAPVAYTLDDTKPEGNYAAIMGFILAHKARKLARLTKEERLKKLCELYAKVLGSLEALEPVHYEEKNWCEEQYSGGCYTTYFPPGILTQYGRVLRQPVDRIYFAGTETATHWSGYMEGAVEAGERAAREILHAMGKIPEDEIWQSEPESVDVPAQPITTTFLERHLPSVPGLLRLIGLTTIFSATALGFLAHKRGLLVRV
Description: Human MAO-B was purchased from Merck KGaA (Darmstadt, Germany). The activity of compound 1 and 8 was measured in the presence of p-tyramine (200 μM). […] Firstly, inhibitors’ activity was measured in a concentration of 1 μM. […] For compounds that inhibited the enzyme by more than 50% further studies were conducted to obtain IC50 from concentration–response curves. All calculations were made in Microsoft Excel and GraphPadPrism software. All experiments were performed in duplicate and data are expressed as mean ± SEM.

NC(Cc1cc(-c2cc(O)ccc2O)c(Cl)c([N+](=O)[O-])c1)C(=O)O (stereo not shown) [Compound 1]
6-OHDA-induced release of LDH (neuroprotection) [1]: statistically significant decrease | 6-OHDA-induced release of LDH (neuroprotection) ([2]; 100 µM 6-OHDA): neuroprotective effect was not observed | 6-OHDA-induced release of LDH (neuroprotection) ([2]; 1 h pretreatment, 50 µM 6-OHDA, 24 h): statistically significant decrease | effect on cold hyperalgesia, cold plate test [3]: unable to attenuate cold hyperalgesia | effect on tactile allodynia, von Frey test [4]: not effective | selectivity over NMDA and KA receptors (native AMPA receptors): high selectivity | Ki (native AMPA receptors; native AMPA receptors, rat brain membranes, mean of three experiments, read-out: [3H]AMPA Ki): 920 nM | maximum MAO-B inhibition attained (Human MAO-B; dose-dependent curve): 52% | IC50 (Human MAO-B; p-tyramine 200 μM): 278 ± 29 nM | inhibition at 1 µM (Human MAO-B; read-out: MAO-B inhibition, screening): > 50%
